Experimental data from ChEMBL document CHEMBL4251615, “Discovery of anilino-furo[2,3-d]pyrimidine derivatives as dual inhibitors of EGFR/HER2 tyrosine kinase and their anticancer activity” (Eur J Med Chem, 2018).

How the values were obtained:
NCI-H460 = assay: Growth inhibition of human NCI-H460 cells assessed as cell growth at 10 uM incubated for 48 hrs by sulforhodamine B assay relative to control; type: functional; conditions: NCI-H460, 48 h, read-out: Activity
TK-10 = assay: Growth inhibition of human TK10 cells assessed as cell growth at 10 uM incubated for 48 hrs by sulforhodamine B assay relative to control; type: functional; conditions: TK-10, 48 h, read-out: Activity
MDA-MB-435 = assay: Growth inhibition of human MDA-MB-435 cells assessed as cell growth at 10 uM incubated for 48 hrs by sulforhodamine B assay relative to control; type: functional; conditions: MDA-MB-435, 48 h, read-out: Activity
SK-MEL-2 = assay: Growth inhibition of human SK-MEL-2 cells assessed as cell growth at 10 uM incubated for 48 hrs by sulforhodamine B assay relative to control; type: functional; conditions: SK-MEL-2, 48 h, read-out: Activity
RPMI-8226 = assay: Growth inhibition of human RPMI8226 cells assessed as cell growth at 10 uM incubated for 48 hrs by sulforhodamine B assay relative to control; type: functional; conditions: RPMI-8226, 48 h, read-out: Activity
NCI-H522 = assay: Growth inhibition of human NCI-H522 cells assessed as cell growth at 10 uM incubated for 48 hrs by sulforhodamine B assay relative to control; type: functional; conditions: NCI-H522, 48 h, read-out: Activity
[1] = biological target: Epidermal growth factor receptor (Homo sapiens, UniProt P00533); assay: Inhibition of recombinant human C-terminal His/N-terminal GST-tagged EGFR (668 to 1210 residues) expressed in baculovirus infected Sf9 cells at 10 uM using biotin-labeled poly[Glu:Tyr] (4:1) as substrate after 30 mins by Kinase-Glo plus luminescence assay relative to control
Sequence of Epidermal growth factor receptor (P00533 whole entry, the tested form may be a part): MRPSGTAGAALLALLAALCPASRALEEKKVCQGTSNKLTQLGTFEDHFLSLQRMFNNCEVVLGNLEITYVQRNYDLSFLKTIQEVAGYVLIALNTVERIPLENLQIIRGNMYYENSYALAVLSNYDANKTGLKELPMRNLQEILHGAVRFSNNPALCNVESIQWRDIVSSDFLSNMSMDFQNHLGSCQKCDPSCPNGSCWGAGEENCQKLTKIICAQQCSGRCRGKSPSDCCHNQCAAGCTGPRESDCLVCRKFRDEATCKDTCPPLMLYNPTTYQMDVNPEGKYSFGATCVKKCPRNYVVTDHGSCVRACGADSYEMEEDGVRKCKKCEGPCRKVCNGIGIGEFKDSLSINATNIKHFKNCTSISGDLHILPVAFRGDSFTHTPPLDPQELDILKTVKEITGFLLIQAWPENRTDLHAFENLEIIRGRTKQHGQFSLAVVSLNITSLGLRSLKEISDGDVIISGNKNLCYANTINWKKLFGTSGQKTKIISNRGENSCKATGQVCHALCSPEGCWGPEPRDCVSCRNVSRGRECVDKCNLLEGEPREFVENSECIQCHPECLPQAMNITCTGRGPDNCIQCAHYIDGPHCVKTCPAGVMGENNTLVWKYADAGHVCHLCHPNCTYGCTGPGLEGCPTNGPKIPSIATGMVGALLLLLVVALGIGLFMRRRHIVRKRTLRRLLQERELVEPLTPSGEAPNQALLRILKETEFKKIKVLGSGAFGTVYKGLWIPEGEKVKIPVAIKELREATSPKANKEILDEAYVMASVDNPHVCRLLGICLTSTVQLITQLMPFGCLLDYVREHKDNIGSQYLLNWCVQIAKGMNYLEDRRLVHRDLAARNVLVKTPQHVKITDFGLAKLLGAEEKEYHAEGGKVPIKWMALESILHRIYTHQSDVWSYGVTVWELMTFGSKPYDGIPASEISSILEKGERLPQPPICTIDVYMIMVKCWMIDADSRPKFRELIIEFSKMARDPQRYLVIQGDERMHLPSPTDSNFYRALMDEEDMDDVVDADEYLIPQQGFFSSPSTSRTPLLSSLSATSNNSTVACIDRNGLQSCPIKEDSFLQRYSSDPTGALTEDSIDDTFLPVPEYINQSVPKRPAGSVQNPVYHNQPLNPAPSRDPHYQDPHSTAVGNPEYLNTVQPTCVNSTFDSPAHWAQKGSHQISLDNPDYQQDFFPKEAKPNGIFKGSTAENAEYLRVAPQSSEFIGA

OVCAR-3 = assay: Growth inhibition of human OVCAR3 cells assessed as cell growth at 10 uM incubated for 48 hrs by sulforhodamine B assay relative to control; type: functional; conditions: OVCAR-3, 48 h, read-out: Activity
HOP-92 = assay: Growth inhibition of human HOP92 cells assessed as cell growth at 10 uM incubated for 48 hrs by sulforhodamine B assay relative to control; type: functional; conditions: HOP-92, 48 h, read-out: Activity
EKVX = assay: Growth inhibition of human EKVX cells assessed as cell growth at 10 uM incubated for 48 hrs by sulforhodamine B assay relative to control; type: functional; conditions: read-out: Activity
PC-3 = assay: Growth inhibition of human PC3 cells assessed as cell growth at 10 uM incubated for 48 hrs by sulforhodamine B assay relative to control; type: functional; conditions: PC-3, 48 h, read-out: Activity
A498 = assay: Growth inhibition of human A498 cells assessed as cell growth at 10 uM incubated for 48 hrs by sulforhodamine B assay relative to control; type: functional; conditions: A498, 48 h, read-out: Activity
MCF7 = assay: Growth inhibition of human MCF7 cells assessed as cell growth at 10 uM incubated for 48 hrs by sulforhodamine B assay relative to control; type: functional; conditions: MCF7, 48 h, read-out: Activity
BT-549 = assay: Growth inhibition of human BT549 cells assessed as cell growth at 10 uM incubated for 48 hrs by sulforhodamine B assay relative to control; type: functional; conditions: BT-549, 48 h, read-out: Activity
MDA-MB-468 = assay: Growth inhibition of human MDA-MB-468 cells assessed as cell growth at 10 uM incubated for 48 hrs by sulforhodamine B assay relative to control; type: functional; conditions: MDA-MB-468, 48 h, read-out: Activity
SN12C = assay: Growth inhibition of human SN12C cells assessed as cell growth at 10 uM incubated for 48 hrs by sulforhodamine B assay relative to control; type: functional; conditions: read-out: Activity
NCI-H322M = assay: Growth inhibition of human NCI-H322M cells assessed as cell growth at 10 uM incubated for 48 hrs by sulforhodamine B assay relative to control; type: functional; conditions: read-out: Activity
RXF 393 = assay: Growth inhibition of human RXF393 cells assessed as cell growth at 10 uM incubated for 48 hrs by sulforhodamine B assay relative to control; type: functional; conditions: RXF 393, 48 h, read-out: Activity
SK-MEL-5 = assay: Growth inhibition of human SK-MEL-5 cells assessed as cell growth at 10 uM incubated for 48 hrs by sulforhodamine B assay relative to control; type: functional; conditions: SK-MEL-5, 48 h, read-out: Activity
A549 = assay: Growth inhibition of human A549/ATCC cells assessed as cell growth at 10 uM incubated for 48 hrs by sulforhodamine B assay relative to control; type: functional; conditions: A549, 48 h, read-out: Activity
786-0 = assay: Growth inhibition of human 786-0 cells assessed as cell growth at 10 uM incubated for 48 hrs by sulforhodamine B assay relative to control; type: functional; conditions: 786-0, 48 h, read-out: Activity
HL-60(TB) = assay: Growth inhibition of human HL-60(TB) cells assessed as cell growth at 10 uM incubated for 48 hrs by sulforhodamine B assay relative to control; type: functional; conditions: HL-60, 48 h, read-out: Activity
HCT-116 = assay: Growth inhibition of human HCT116 cells assessed as cell growth at 10 uM incubated for 48 hrs by sulforhodamine B assay relative to control; type: functional; conditions: HCT-116, 48 h, read-out: Activity
COLO 205 = assay: Growth inhibition of human COLO205 cells assessed as cell growth at 10 uM incubated for 48 hrs by sulforhodamine B assay relative to control; type: functional; conditions: COLO 205, 48 h, read-out: Activity
DU-145 = assay: Growth inhibition of human DU145 cells assessed as cell growth at 10 uM incubated for 48 hrs by sulforhodamine B assay relative to control; type: functional; conditions: DU-145, 48 h, read-out: Activity

SMILES	growth at 10 µM (NCI-H460)	growth at 10 µM (TK-10)	growth at 10 µM (MDA-MB-435)	growth at 10 µM (SK-MEL-2)	growth at 10 µM (RPMI-8226)	growth at 10 µM (NCI-H522)	inhibition [1]	growth at 10 µM (OVCAR-3)	growth at 10 µM (HOP-92)	growth at 10 µM (PC-3)	growth at 10 µM (A498)	growth at 10 µM (BT-549)	growth at 10 µM (MDA-MB-468)	growth at 10 µM (SN12C)	growth at 10 µM (NCI-H322M)	growth at 10 µM (RXF 393)	growth at 10 µM (SK-MEL-5)	growth at 10 µM (A549)	growth at 10 µM (786-0)	growth at 10 µM (HCT-116)	further results
CCOC(=O)c1c(C)oc2ncnc(Nc3cccc(F)c3)c12	101%	95.9%	101%	92.9%	107%	94.3%	2%	108%	88.3%	94.7%	75.9%	94.2%	96.5%	89.1%	106%	97.6%	99%	93%	95.7%	88.1%	growth at 10 µM (EKVX): 101%; growth at 10 µM (MCF7): 95.4%; growth at 10 µM (HL-60(TB)): 76.4%; growth at 10 µM (COLO 205): 104%; growth at 10 µM (DU-145): 99%
Cc1oc2ncnc(Nc3cccc(F)c3)c2c1C(=O)O	104%	105%	104%	107%	107%	93.9%	49%	102%	89.3%	108%	90.5%	93.9%	104%	89.7%	109%	115%	99.6%	101%	92%	103%	growth at 10 µM (EKVX): 101%; growth at 10 µM (MCF7): 97.6%; growth at 10 µM (HL-60(TB)): 35.2%; growth at 10 µM (COLO 205): 109%; growth at 10 µM (DU-145): 107%
Cc1oc2ncnc(Nc3ccccc3)c2c1C(=O)NCCO	98.6%	122%	102%	113%	94.8%	96.6%	8%	102%	88.6%	107%	78.2%	90.1%	109%	93.2%	108%	104%	97.5%	98.1%	98.7%	99.3%	growth at 10 µM (EKVX): 97.6%; growth at 10 µM (MCF7): 98.6%; growth at 10 µM (HL-60(TB)): 64.9%; growth at 10 µM (COLO 205): 100%; growth at 10 µM (DU-145): 105%
Cc1oc2ncnc(Nc3cccc(Cl)c3)c2c1CO	94%	65.2%	93.1%	98.1%	70.4%	89.8%	69%	102%	90.5%	71.3%	51.6%	81.9%	69.1%	88.6%	95%	85.4%	87.9%	82.1%	78.3%	81.6%	growth at 10 µM (EKVX): 64.4%; growth at 10 µM (MCF7): 89.7%; growth at 10 µM (HL-60(TB)): 54%; growth at 10 µM (COLO 205): 93.9%; growth at 10 µM (DU-145): 86.2%
Cc1cccc(Nc2ncnc3oc(C)c(C(=O)NCCN4CCOCC4)c23)c1	105%	98.7%	101%	106%	89.5%	89.9%	30%	102%	97.6%	101%	68.9%	90.7%	89.4%	94.3%	101%	86.3%	96.9%	102%	92.4%	117%	growth at 10 µM (EKVX): 92.6%; growth at 10 µM (MCF7): 96.2%; growth at 10 µM (HL-60(TB)): 92.4%; growth at 10 µM (COLO 205): 101%; growth at 10 µM (DU-145): 99.4%
Cc1oc2ncnc(Nc3cccc(F)c3)c2c1C(=O)NCCO	105%	90.1%	108%	103%	106%	88.4%	20%	107%	101%	111%	83%	96.3%	106%	98.7%	104%	109%	102%	91%	93%	105%	growth at 10 µM (COLO 205): 111%; growth at 10 µM (DU-145): 105%
CCOC(=O)c1c(C)oc2ncnc(Nc3ccc(F)c(Cl)c3)c12	106%	114%	114%	95.5%	101%	74.6%	10%	116%	72.1%	85.6%	87.4%	101%	112%	92.2%	101%	101%	94.5%	86.9%	104%	103%	growth at 10 µM (EKVX): 108%; growth at 10 µM (MCF7): 104%; growth at 10 µM (HL-60(TB)): 101%; growth at 10 µM (COLO 205): 110%; growth at 10 µM (DU-145): 103%
Cc1cccc(Nc2ncnc3oc(C)c(C(=O)NCCO)c23)c1	102%	102%	97.2%	113%	95.7%	91.8%	36%	108%	94.1%	96.1%	74.7%	90.7%	87%	97.1%	95%	81.1%	94.6%	89.4%	99%	93%	growth at 10 µM (EKVX): 91.8%; growth at 10 µM (MCF7): 94.8%; growth at 10 µM (HL-60(TB)): 84.6%; growth at 10 µM (COLO 205): 99%; growth at 10 µM (DU-145): 103%
CCOC(=O)c1c(C)oc2ncnc(Nc3ccc(F)cc3)c12	100%	96.5%	101%	103%	103%	92.9%	6%	104%	90.8%	111%	80.4%	98.5%	103%	92.9%	101%	99.8%	102%	99.4%	93.1%	98.9%	growth at 10 µM (COLO 205): 102%; growth at 10 µM (DU-145): 101%
